Measurements reported in patent publication US6737383B1, “Herbicidal oxadiazolidines” (priority 1999, dated 2004).

Key:
bedstraw = experiment: Test B pre/postemergence bedstraw; assay type: in vivo, Galium aparine
Summary of the method: (§1)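 Response is a visual 0-to-10 score relative to untreated plants, where 0 means no effect and 10 means complete control, taken twelve to sixteen days after application. Treatments went onto soil at planting and onto foliage of 1- to 4-leaf plants, using a surfactant-containing non-phytotoxic solvent.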

cocklebur = experiment: Test B pre/postemergence cocklebur; assay type: in vivo, Xanthium strumarium
Summary of the method: as §1

corn = experiment: Test B pre/postemergence corn; assay type: in vivo, Zea mays
Summary of the method: as §1

crabgrass = experiment: Test B pre/postemergence crabgrass; assay type: in vivo, Digitaria sanguinalis
Summary of the method: as §1

giant foxtail = experiment: Test B pre/postemergence giant foxtail; assay type: in vivo, Setaria faberii
Summary of the method: as §1

morningglory = experiment: Test B pre/postemergence morningglory; assay type: in vivo, Ipomoea hederacea
Summary of the method: as §1

pigweed = experiment: Test B pre/postemergence pigweed; assay type: in vivo, Amaranthus retroflexus
Summary of the method: as §1

rape = experiment: Test B pre/postemergence rape; assay type: in vivo, Brassica napus
Summary of the method: as §1

soybean = experiment: Test B pre/postemergence soybean; assay type: in vivo, Glycine max
Summary of the method: as §1

velvetleaf = experiment: Test B pre/postemergence velvetleaf; assay type: in vivo, Abutilon theophrasti
Summary of the method: as §1

wheat = experiment: Test B pre/postemergence wheat; assay type: in vivo, Triticum aestivum
Summary of the method: as §1

wild oat = experiment: Test B pre/postemergence wild oat; assay type: in vivo, Avena fatua
Summary of the method: as §1

purple nutsedge = experiment: Test B pre/postemergence purple nutsedge; assay type: in vivo, Cyperus rotundus
Summary of the method: as §1

rice = experiment: Test B flood test rice; assay type: in vivo, Oryza sativa
Summary of the method: (§2)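 Each value is a visual injury score relative to controls, with 10 meaning complete control and 0 no effect. Evaluation took place twelve to sixteen days after the 2-leaf-stage plants were treated and kept in the greenhouse.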

smallflower flatsedge = experiment: Test B flood test smallflower flatsedge; assay type: in vivo, Cyperus difformis
Summary of the method: as §2

duck salad = experiment: Test B flood test duck salad; assay type: in vivo, Heteranthera limosa
Summary of the method: as §2

[1] = Preemergence, Rate 62 g/ha, scale of 0 to 10 where 0 is no effect and 10 is complete control
[2] = Preemergence, Rate 250 g/ha, scale of 0 to 10 where 0 is no effect and 10 is complete control
[3] = Rate 125 g/ha, Postemergence, scale of 0 to 10 where 0 is no effect and 10 is complete control
[4] = Rate 500 g/ha, Postemergence, scale 0 to 10, 0 no effect, 10 complete control
[5] = Preemergence, Rate 500 g/ha, scale of 0 to 10 where 0 is no effect and 10 is complete control
[6] = Rate 62 g/ha, Postemergence, scale 0 to 10 (0 no effect, 10 complete control)
[7] = Rate 250 g/ha, Postemergence, scale of 0 to 10 where 0 is no effect and 10 is complete control
[8] = Rate 62 g/ha, headed Pre-emergence (flood test species), scale 0 to 10 (0 no effect, 10 complete control)
[9] = Rate 125 g/ha, Pre-emergence, flood test species, scale 0 to 10 where 0 is no effect and 10 is complete control
[10] = Rate 250 g/ha, Pre-emergence, flood-test species, scale 0 to 10, 0 is no effect, 10 is complete control
[11] = Rate 500 g/ha, Pre-emergence, flood test species, scale 0 to 10 (0 no effect, 10 complete control)

Cc1cccc(C(C)(C)C)c1-n1c(=O)on(C(=O)N(c2ccccc2)C(C)C)c1=O [Compound 303]
Bedstraw plant response rating (bedstraw; [1]): 0 | Bedstraw plant response rating (0 to 10 scale) (bedstraw; Preemergence, Rate 125 g/ha): 0 | Bedstraw plant response rating (bedstraw; [2]): 0 | Bedstraw plant response rating (bedstraw; [3]): 0 | Bedstraw plant response rating (bedstraw; [4]): 0 | Cocklebur plant response rating (cocklebur; [1]): 0 | Cocklebur plant response rating (0 to 10 scale) (cocklebur; Preemergence, Rate 125 g/ha): 0 | Cocklebur plant response rating (cocklebur; [2]): 0 | Cocklebur plant response rating (cocklebur; [5]): 0 | Cocklebur plant response rating (cocklebur; [6]): 0 | Cocklebur plant response rating (cocklebur; [3]): 0 | Plant response rating, Cocklebur (cocklebur; [7]): 0 | Cocklebur plant response rating (cocklebur; [4]): 0 | Corn plant response rating (corn; [1]): 0 | Corn plant response rating (0 to 10 scale) (corn; Preemergence, Rate 125 g/ha): 0 | Corn plant response rating (corn; [2]): 0 | Corn plant response rating (corn; [5]): 0 | Corn plant response rating (corn; [6]): 0 | Corn plant response rating (corn; [3]): 0 | Plant response rating, Corn (corn; [7]): 0 | Corn plant response rating (corn; [4]): 0 | Crabgrass plant response rating (crabgrass; [1]): 0 | Crabgrass plant response rating (0 to 10 scale) (crabgrass; Preemergence, Rate 125 g/ha): 0 | Crabgrass plant response rating (crabgrass; [2]): 0 | Crabgrass plant response rating (crabgrass; [6]): 0 | Crabgrass plant response rating (crabgrass; [3]): 0 | Plant response rating, Crabgrass (crabgrass; [7]): 0 | Giant foxtail plant response rating (giant foxtail; [1]): 0 | Giant foxtail plant response rating (0 to 10 scale) (giant foxtail; Preemergence, Rate 125 g/ha): 0 | Giant foxtail plant response rating (giant foxtail; [2]): 0 | Giant foxtail plant response rating (giant foxtail; [5]): 0 | Giant foxtail plant response rating (giant foxtail; [6]): 0 | Giant foxtail plant response rating (giant foxtail; [3]): 0 | Plant response rating, Giant foxtail (giant foxtail; [7]): 0 | Morningglory plant response rating (morningglory; [1]): 0 | Morningglory plant response rating (0 to 10 scale) (morningglory; Preemergence, Rate 125 g/ha): 0 | Morningglory plant response rating (morningglory; [2]): 0 | Morningglory plant response rating (morningglory; [5]): 3 | Morningglory plant response rating (morningglory; [6]): 0 | Morningglory plant response rating (morningglory; [3]): 0 | Plant response rating, Morningglory (morningglory; [7]): 0 | Redroot pigweed plant response rating (pigweed; [1]): 0 | Redroot pigweed plant response rating (0 to 10 scale) (pigweed; Preemergence, Rate 125 g/ha): 0 | Redroot pigweed plant response rating (pigweed; [2]): 0 | Redroot pigweed plant response rating (pigweed; [5]): 0 | Redroot pigweed plant response rating (pigweed; [6]): 0 | Redroot pigweed plant response rating (pigweed; [3]): 0 | Plant response rating, Redroot pigweed (pigweed; [7]): 2 | Rape plant response rating (rape; [1]): 0 | Rape plant response rating (0 to 10 scale) (rape; Preemergence, Rate 125 g/ha): 0 | Rape plant response rating (rape; [2]): 0 | Rape plant response rating (rape; [5]): 0 | Rape plant response rating (rape; [6]): 0 | Rape plant response rating (rape; [3]): 0 | Plant response rating, Rape (rape; [7]): 0 | Soybean plant response rating (soybean; [1]): 0 | Soybean plant response rating (0 to 10 scale) (soybean; Preemergence, Rate 125 g/ha): 0 | Soybean plant response rating (soybean; [2]): 0 | Soybean plant response rating (soybean; [5]): 0 | Soybean plant response rating (soybean; [6]): 2 | Soybean plant response rating (soybean; [3]): 2 | Plant response rating, Soybean (soybean; [7]): 3 | Velvetleaf plant response rating (velvetleaf; [1]): 0 | Velvetleaf plant response rating (0 to 10 scale) (velvetleaf; Preemergence, Rate 125 g/ha): 0 | Velvetleaf plant response rating (velvetleaf; [2]): 0 | Velvetleaf plant response rating (velvetleaf; [5]): 0 | Velvetleaf plant response rating (velvetleaf; [6]): 0 | Velvetleaf plant response rating (velvetleaf; [3]): 0 | Plant response rating, Velvetleaf (velvetleaf; [7]): 0 | Wheat plant response rating (wheat; [1]): 0 | Wheat plant response rating (0 to 10 scale) (wheat; Preemergence, Rate 125 g/ha): 0 | Wheat plant response rating (wheat; [2]): 0 | Wheat plant response rating (wheat; [5]): 0 | Wheat plant response rating (wheat; [6]): 0 | Wheat plant response rating (wheat; [3]): 0 | Plant response rating, Wheat (wheat; [7]): 0 | Wild oats plant response rating (wild oat; [1]): 0 | Wild oats plant response rating (0 to 10 scale) (wild oat; Preemergence, Rate 125 g/ha): 0 | Wild oats plant response rating (wild oat; [2]): 0 | Wild oats plant response rating (wild oat; [5]): 0 | Wild oats plant response rating (wild oat; [6]): 0 | Wild oats plant response rating (wild oat; [3]): 0 | Plant response rating, Wild oats (wild oat; [7]): 0 | Nutsedge plant response rating (purple nutsedge; [1]): 0 | Nutsedge plant response rating (purple nutsedge; [2]): 0 | Nutsedge plant response rating (purple nutsedge; [5]): 0 | Nutsedge plant response rating (purple nutsedge; [6]): 0 | Nutsedge plant response rating (purple nutsedge; [3]): 0 | Plant response rating, Nutsedge (purple nutsedge; [7]): 0 | Rice plant response rating (rice; [8]): 0 | Rice plant response rating (rice; [9]): 0 | Rice plant response rating (rice; [10]): 0 | Rice plant response rating (rice; [11]): 0 | S. Flatsedge plant response rating (smallflower flatsedge; [8]): 0 | S. Flatsedge plant response rating (smallflower flatsedge; [9]): 0 | S. Flatsedge plant response rating (smallflower flatsedge; [10]): 0 | S. Flatsedge plant response rating (smallflower flatsedge; [11]): 0 | Ducksalad plant response rating (duck salad; [8]): 0 | Ducksalad plant response rating (duck salad; [9]): 0 | Ducksalad plant response rating (duck salad; [10]): 0 | Ducksalad plant response rating (duck salad; [11]): 0
